Tests used:
[1] = tested on: SH-SY5Y; assay: Cytotoxicity study, MTT test; type: cell-based; details: differentiated SH-SY5Y; 0.1 to 100 μg/mL; 24 hours
Protocol: In order to evaluate the level of toxicity of these molecules according to their concentration in the cellular environment, an MTT test (3-(4,5-dimethylthiazol-2-yl)-2,5-diphenyl tetrazolium bromide) is carried out (FIGS. 11 and 12) upstream of the phosphorylation tests in cellulo.
SH-SY5Y (ATCC-CRL-2266) are developed in Dulbecco's Modified Eagle Complete Medium (DMEM-GlutaMAX™, Life Technologies) with 10% foetal bovine serum (FBS) and 1% penicillin/streptomycin in an incubator at 37° C. with 5% CO2.
For this, the SH-SY5Y cells are cultured in a 6-well plate at a cell density of 200,000 cells/well and are differentiated using retinoic acid (10 μM, Sigma Aldrich) for 5 days. On day 6, the cells are brought into contact with LG2A molecules at different concentrations (0.1, 1, 10 or 100 μg/mL), in a final volume of 2 mL. After 24 hours, MTT (5 μg/mL; Sigma-Aldrich) is added to the cell medium for 2 hours at 37° C. Then the medium is removed and 200 μL of pure dimethylsulfoxide (DMSO, Sigma-Aldrich) are added to each well. The entire contents of each well are transferred to a 96-well plate and the absorbance is measured at 562 nm using the Infinite M1000 spectrofluorometer (Tecan).

[2] = target: T1, tau protein (4R2N, 441 amino acids) (Homo sapiens, UniProt P10636); assay: In vitro abnormal tau phosphorylation by GSK3β, competition with heparin (western blot); type: biochemical
T1 construct: purchased Millipore (tau); Promega (GSK3β)
T1 sequence (P10636 1-441 isoform P10636-8): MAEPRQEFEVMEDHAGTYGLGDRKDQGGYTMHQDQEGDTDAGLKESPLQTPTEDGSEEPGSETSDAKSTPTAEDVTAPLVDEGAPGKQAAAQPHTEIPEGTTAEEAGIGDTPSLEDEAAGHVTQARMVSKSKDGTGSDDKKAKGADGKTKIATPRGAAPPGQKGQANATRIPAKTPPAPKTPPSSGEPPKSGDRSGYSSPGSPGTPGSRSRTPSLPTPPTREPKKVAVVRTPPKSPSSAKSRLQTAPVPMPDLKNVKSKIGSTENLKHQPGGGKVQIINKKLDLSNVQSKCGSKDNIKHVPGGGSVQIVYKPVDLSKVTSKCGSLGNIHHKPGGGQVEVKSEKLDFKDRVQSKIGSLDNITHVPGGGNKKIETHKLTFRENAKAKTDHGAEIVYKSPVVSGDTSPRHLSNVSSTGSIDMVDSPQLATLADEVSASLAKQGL
Excerpt: Phosphorylation of tau protein is the most common post-translational modification to regulate tau activity and functions. The longest tau isoform (4R2N, 441 amino acids) containing 85 potential phosphorylation sites was used. In vitro phosphorylation of the tau protein is done by induction, on the one hand, (FIG. 5) and, on the other hand, according to a competition process between the LG2A molecules and heparin, conventionally used to induce abnormal tau phosphorylation in vitro (FIGS. 3, 4, 6, 7, 8, 9 and 10).
For abnormal tau phosphorylation tests, GSK3p, a kinase centrally involved in this process in the brains of subjects with Alzheimer's disease (AD), was used. Analysis of tau phosphorylation by GSK3b at sites characteristic of AD is possible by the western blot technique using specific antibodies that recognize abnormally phosphorylated sites in the brain or cerebrospinal fluid of AD subjects, such as the AT270 antibody which recognizes threonine 181 (Thr181), the PHF1 antibody which recognizes serines 396 and 404 (Ser396/Ser404), and the AT8 antibody, which recognizes the Ser199/Ser202/Thr205 site.
By competition: The tau protein (40 μg/mL) is phosphorylated by the GSK3β enzyme at 4 ng/mL (Promega) in the presence of ATP (Sigma-Aldrich) at 48 μM and protease inhibitors (Sigma-Aldrich, 1/100), in the buffer mentioned above. The ability of the LG2A molecules (60 μg/mL) to compete with heparin (12 μg/mL; Sigma-Aldrich) is evaluated. Thus if the signal in the presence of the molecules is less than that obtained with heparin alone, the molecules are then defined as “protectors” from abnormal tau phosphorylation.
In both systems (induction or competition), the tau protein is incubated at 37° C. with stirring in the presence of the different elements presented above. The reaction kinetics are monitored by taking 8 μL of the samples at 1.5 h, 3 h and 6 h of incubation. Loading buffer (Euromedex) and β-mercaptoethanol (Sigma-Aldrich) are added to each sample. The samples are then stored at −20° C. until analysis by western blot.
After denaturation of the samples by heating at 95° C. for 5 minutes, the samples are deposited simultaneously with the molecular weight marker (Precision Plus Protein™ Dual Color Standards; BIO-RAD) on a 10% acrylamide gel placed in an electrophoresis tank containing migration buffer (0.25 M Tris; 1.6 M Glycine; […]; pH 8.6).
The controls used for this phosphorylation experiment followed by western blot are: • the “native tau” protein, that is to say the non-phosphorylated tau protein. • the tau protein phosphorylated by GSK3b alone in the absence of heparin. • the tau protein phosphorylated in the presence of heparin, denoted “tau+heparin”. • the “external standard” corresponding to the tau protein phosphorylated in the presence of heparin for 3 h. This standard is carried out in an experiment independently of the phosphorylation experiments in the presence of LG2A compounds. It ensures that the western blot is carried out correctly.
Then the membrane is incubated overnight with stirring at +4° C. in a solution of PBS, 0.1% Tween and 1% milk containing the primary antibody specific for tau phosphorylation sites (AT270, ThermoScientific or S199-202, Millipore).
After incubation of the PVDF membrane in the chosen primary antibody, a succession of 3 washes of 5 minutes of the membrane is carried out in PBS and 0.1% Tween with stirring and the membrane is incubated for 1 h with stirring at room temperature in a solution of 1×PBS, 0.1% Tween and 1% milk containing the diluted secondary antibody (Jackson Immuno-Research).

[3] = tested on: tau phosphorylation (S262 site) in cortical cells of rTg4510 mice (human tau P301L); assay: In cellulo tau phosphorylation test in cortical cells of rTg4510 mice; type: cell-based; details: 24 h
Excerpt: Cortical cells from rTg4510 mice mutated for human tau protein (P301 L) were used as a model of primary cells expressing a tauopathy without induction by an effector, unlike the previous cellular model (Santa Cruz et al., Science, 2005).
Cortical cells are extracted from mouse embryos expressing the P301L mutation at stage E16 and cultured in a 6-well plate. On day 14 (moderate tau phosphorylation) or day 18 (severe tau phosphorylation), cells extracted from the same embryo are placed in the presence of the Mal16diS molecule at different concentrations (0.1 or 1 μg/mL), in a final volume of 2 mL simultaneously with a well of cells from the same embryo not receiving molecules for 24 h. After 24 h of treatment with the molecules, the cells are rinsed with 1×PBS then lysed and recovered in RIPA buffer (Thermo Fischer). The protein extracts from the cells (10 μg) are then analysed by western blot according to the same procedure described above.
The tau phosphorylation site studied here is the S262 site (Thermo Fisher), normalized to the expression of total tau protein (K9JA, Dako). The bands are quantified using the Odyssey software of the LI-COR device allowing the p-tau/tau ratio to be calculated for each of the conditions. The ratio obtained for each concentration of molecule is then expressed as a percentage of the ratio obtained for cells not treated by the molecules. Thus a value less than 100% corresponds to protection provided by the molecules in this cellular model of expression of tau phosphorylation. The experiment was repeated at least three times for each dose of “Mal16diS” molecule. The mean and standard deviation of the replicates are shown in FIGS. 17 and 18; each of the values obtained for each dose is compared to that of the cells without addition of the molecule, with a t-test. Statistical differences with p-value <0.01 and <0.001 are represented by “**” and “***” respectively.

## CCCCCCCCCCCCCCCCNC(=O)[C@H](O)[C@@H](O)[C@H](O[C@H]1OC(COS(=O)(=O)[O-])[C@@H](O)C(O)[C@@H]1O)[C@H](O)COS(=O)(=O)[O-].[Na+].[Na+] (stereo partly drawn) [Mal16diS, N-Hexadecyl-6,6′-Di-O-Sulfo-D-Maltobioamide Disodium]
[1]
  cytotoxicity (MTT): not cytotoxic
[2]; in presence of heparin, after 3 h of reaction
  abnormal phosphorylation of tau (p-tau) revealed by AT270 and Ser199/202 antibodies: inhibited
[2]; molecule 60 μg/mL vs heparin 12 μg/mL, 1.5 to 6 h of reaction, AT270, Ser199/202
  ability to compete with heparin for abnormal tau phosphorylation by GSK3β: total competition with heparin
[3]; moderate phosphorylation (D14), 0.1 μg/mL
  reduction in tau phosphorylation (S262, p-tau/tau) compared to untreated cells: 48%
[3]; moderate phosphorylation (D14), 1 μg/mL
  reduction in tau phosphorylation (S262, p-tau/tau) compared to untreated cells: 64%
[3]; severe phosphorylation (D18), 0.1 μg/mL
  reduction in tau phosphorylation (S262, p-tau/tau) compared to untreated cells: 39%
[3]; severe phosphorylation (D18), 1 μg/mL
  reduction in tau phosphorylation (S262, p-tau/tau) compared to untreated cells: 53%
